Experimental data published in patent US6582910B1, “WbpP and method for assay of WbpP” (priority 1999, dated 2003).
Entries after “also recorded” stand apart in the source; their conditions may differ.

Assays:
[1] = target: T1, WbpP (Pseudomonas aeruginosa, UniProt Q8KN66); test: Requirement for NAD+ or divalent cations for enzymatic activity (capillary electrophoresis); assay type: biochemical; conditions: NAD+ 1 mM, divalent cations 4 mM, acetylated or non-acetylated substrates
T1 construct: made in house; host or cells: E. coli BL21(DE3)pLysS, pET23 derivative
Method: Study of the Requirement for NAD+ or divalent cations for enzymatic activity—To access the requirement for NAD+ or divalent cations for the enzymatic activity of WbpP, reactions were carried out with or without NAD+ (1 mM final concentration), and with or without divalent cations (4 mM final concentration of MnCl2, MgCl2, or CaCl2) and monitored by capillary electrophoresis as described above.

[2] = target: T1, WbpP; test: Capillary electrophoresis, kinetic parameters for UDP-GlcNAc and UDP-GalNAc; assay type: biochemical; conditions: acetylated substrates; for kcal: CE; for Km / Vmax: initial rates, 3 min, 37° C., 20 mM Tris pH 8, CE
Method: Determination of the kinetic parameters for UDP-GlcNAc and UDP-GalNAc by capillary electrophoresis—Reactions were performed at 37° C. in 20 mM Tris pH 8 with a total reaction volume of 44 μl. The amount of purified enzyme added was 234 ng and 117 ng for reaction with UDP-GlcNAc and UDP-GalNAc, respectively. After incubation at 37° C. for the required amount of time, the reactions were quenched by boiling the sample for 6 min. Time course studies were performed with final sugar-nucleotide concentrations of 0.075 and 1.75 mM. Samples were quenched after 0, 2, 4, 6, 8, 10 and 15 min. […] Capillary electrophoresis (CE) analysis was performed using a P/ACE 5000 system (Beckman, Fullerton, Calif.) with UV detection. The running buffer was 25 mM sodium tetraborate pH 9.4. The capillary was bare silica 75 μm×57 cm, with a detector at 50 cm. The capillary was conditioned before each run by washing with 0.2 M NaOH for 2 min, water for 2 min, and running buffer for 2 min. Samples were introduced by pressure injection for 4 s and the separation was performed at 22 kV. Peak integration was done using the Beckman P/ACE Station software. The calculation of kinetic parameters was done using the PRISM program.
FIG. 4: Capillary electrophoresis analysis of the epimerisation of UDP-GlcNAc and UDP-GalNAc by WbpP at equilibrium. The reactions were performed in a total volume of 35 μl with 1.5 mM substrate and 17 μg of enzyme. They were incubated at 37° C. for 2 h. 1, UDP-GalNAc alone; 2, UDP-GlcNAc alone; 3, UDP-GlaNAc+WbpP; 4, UDP-GlcNAc+WbpP.
FIG. 5: Time Course of epimerisation of UDP-GlcNAc and UDP-GalNAc by WbpP as measured by capillary electrophoresis. Reactions were performed at 37° C. in 20 mM Tris pH 8 with a total reaction volume of 44 μl. The amount of purified enzyme added was 234 ng and 117 ng for reaction with UDP-GlcNAc and UDP-GalNAc, respectively. Closed circles, UDP-GlcNAc 0.075 mM; Closed squares, UDP-GalNAc 0.075 mM; Open circles, UDP-GlcNAc 1.75 mM; Open squares, UDP-GalNAc 1.75 mM.

[3] = target: T1, WbpP; test: DMAB spectrophotometric assay of epimerisation of UDP-GlcNAc and UDP-GalNAc; assay type: biochemical; conditions: for Specific activity: 0.75 mM substrate
Method: Determination of the enzymatic conversion of UDP-GlcNAc and UDP-GalNAc using p-dimethylaminobenzaldehyde (DMAB)—Reactions were performed with a total reaction volume of 35 μl at 37° C. in 20 mM Tris pH 8 unless stated otherwise. The specific amount of enzyme used, substrate concentrations, and incubation time are indicated in the legend of each figure. The reactions were stopped by acid hydrolysis of the UDP moiety of the substrate. For this purpose, the samples were acidified to pH 2 by addition of 7 μl of HCl 0.1 N, boiled for 6 min, and neutralised by addition of 7 μl of NaOH 0.1 N. For the spectrophotometric quantification of GalNAc and GlcNAc, the reagent DMAB was prepared at 10% in glacial acetic acid/HCl 9/1 v/v, and further diluted 1/10 in glacial acetic acid before use (Reissig et al. (1955)). For the assay itself, 100 μl of 0.2 M sodium tetraborate pH 9.1 were added to 50 μl of quenched and neutralised enzymatic reactions and boiled immediately for 3 min. 40 μl of this mixture were transferred to a microtitration plate and 200 μl of DMAB reagent were added. After incubation for 30 min at 37° C., the OD595 nm was recorded using a microplate reader. For practical reasons, the DMAB assay was carried out using a wavelength setting of 595 nm in the spectrophotometer. […] The assay was done in duplicate for each reaction tested. Standard curves were prepared using UDP-GlcNAc and UDP-GalNAc that were subjected to acid hydrolysis in the same conditions as described above.
FIG. 3: Study of the epimerisation of UDP-GlcNAc and UDP-GalNAc by WbpP using the DMAB assay. Panel A, standard curves obtained with each compound separately. Open circles, UDP-GlcNAc; Open squares, UDP-GalNAc. Panel B, comparison of the experimental data (closed triangles) obtained for mixtures of UDP-GalNAc and UDP-GlcNAc of different proportions (constant total sugar-nucleotide concentration of 0.75 mM) and the theoretical data (open triangles) calculated from the standard curves from panel 3A. 3C: Activity of WbpP as a function of the amount of enzyme added. The reactions were performed with […] substrate in a total volume of 35 μl for 8 min at 37° C. Closed circles, UDP-GlcNAc; Closed squares, UDP-GalNAc.
FIG. 6: Determination of the optimum pH and temperature for the epimerisation of UDP-GlcNAc by WbpP using the DMAB assay: For the pH study (panel A), the reactions were performed with 5 mM UDP-GlcNAc and 39 ng of enzyme in a total volume of 44 μl and incubated for 10 min at 37° C. The pH between 5 and 7 were obtained with 50 mM sodium acetate buffer (open circles), whereas pH 7 to 10 were obtained with 50 mM Tris-HCl (closed circles). For the temperature study (panel B), the reactions were performed in 50 mM Tris-HCl pH 8 with 5 mM UDP-GlcNAc and 0.78 ng of enzyme in a total volume of 44 μl and 30 min incubation. For both panels, two enzymatic reactions were set up in each experimental condition and two determinations of residual UDP-GlcNAc were made per reaction. Each point represents the average of the four determinations.

[4] = Storage stability of purified WbpP; assay type: physicochemical; conditions: −20° C. in 25% glycerol or 20% adonitol in Tris pH 8
Method: Purification of WbpP by chromatography—Cells sedimented from 100 ml induced culture were resuspended in 10 ml of buffer A (5 mM imidazole, 20 mM Tris pH 8, 0.1 M NaCl). The cells were briefly sonicated (macrotip, sonicator XL2020 Heat systems Incorporated, power set to 4, 2 min total, 5 sec on, 5 sec off) on ice. Cell debris were removed by centrifugation at 13000×g for 15 min at 4° C. and the supernatant was applied to a 3 ml fast flow cielating sepharose column (Amersham-Pharmacia, Quebec) previously loaded with nickel sulfate (30 ml of 0.1 M) and equilibrated with 5 column volumes (CV) of buffer A. Loading of the sample as well as all washing and elution steps were done by gravity. After loading of the sample, the column was washed with 10 CV of buffer A and 5 CV of buffer B (20 mM imidazole, 20 mM Tris pH 8, 0.1M NaCl). Elution was carried out with 3 CV of buffer C (1 M imidazole, 20 mM Tris pH 8, 0.5 M NaCl 0.1 M). Fractions were collected every 1 CV. […] This fraction was subjected to further purification by anion exchange chromatography after dilution 1/30 in 50 mM Tris pH 8. Half of it was loaded onto a 1 ml column of Q Sepharose fast flow (Pharmacia). The column was washed with 30 CV of Tris buffer and the protein was eluted with 3 CV of 50 mM Tris pH 8, 0.5 M NaCl. […] Protein quantitation was done using the BCA reagent (Pierce, Rockford, Ill.).

[5] = target: the molecule itself; test: gel filtration on G100 Sephadex, self-association (homodimer)
[6] = fraction: anion exchange (purified WbpP)

NC(=O)c1ccc[n+]([C@@H]2O[C@H](COP(=O)([O-])OP(=O)(O)OC[C@H]3O[C@@H](n4cnc5c(N)ncnc54)[C@H](O)[C@@H]3O)[C@@H](O)[C@H]2O)c1 [NAD^+]
Necessity of addition to the reaction mixture for the C4 epimerase activity [1]: active without requiring addition | Necessity of addition to the reaction mixture for the C4 epimerase activity ([1]; listed as NAD^1): not necessary

[Ca+2].[Cl-].[Cl-] [Ca^2+]
Necessity of addition to the reaction mixture for the C4 epimerase activity [1]: not necessary; also recorded: active without requiring addition

[Cl][Mn][Cl] [Mn^2+]
Necessity of addition to the reaction mixture for the C4 epimerase activity [1]: not necessary; also recorded: active without requiring addition

CC(=O)N[C@H]1[C@@H](OP(=O)(O)OP(=O)(O)OC[C@H]2O[C@@H](n3ccc(=O)[nH]c3=O)[C@H](O)[C@@H]2O)O[C@H](CO)[C@H](O)[C@@H]1O [UDP-GalNAc, UDP-N-acetylgalactosamine]
kcal [2]: 271 ± 7 min⁻¹ | Km [2]: 197 µM | Vmax [2]: 840 ± 25 pmol/min | Maximum substrate conversion (at equilibrium) ([3]; acetylated substrates, epimerisation by WbpP): ~70% | Specific activity ([3]; fraction: IMAC): 4.6 U/mg | Specific activity [3, 6]: 5.6 U/mg | Specific activity ([3]; fraction: soluble fraction): 3.4 U/mg | Specific activity ([3]; fraction: total cell extract): 2.6 U/mg | Specific activity of purified WbpP [3]: 5.6 Units/mg

CC(=O)N[C@H]1[C@@H](OP(=O)(O)OP(=O)(O)OC[C@H]2O[C@@H](n3ccc(=O)[nH]c3=O)[C@H](O)[C@@H]2O)O[C@H](CO)[C@@H](O)[C@@H]1O [UDP-GlcNAc, UDP-N-acetylglucosamine]
kcal [2]: 120 ± 3 min⁻¹ | Km [2]: 224 µM | Vmax [2]: 741 ± 22 pmol/min | Specific activity ([3]; fraction: IMAC): 2.0 U/mg | Specific activity [3, 6]: 2.3 U/mg | Specific activity ([3]; fraction: soluble fraction): 1.1 U/mg | Specific activity ([3]; fraction: total cell extract): 0.2 U/mg | Specific activity of purified WbpP [3]: 2.3 Units/mg

[Cl-].[Cl-].[Mg+2] [Mg^2+]
Necessity of addition to the reaction mixture for the C4 epimerase activity [1]: active without requiring addition | Necessity of addition to the reaction mixture for the C4 epimerase activity ([1]; listed as Mg2^1): not necessary

B1: WbpPO6 carrying a N-terminal hexahistidine tag (enzyme)
chain: MHHHHHHGSMGMMSRYEELRKELPAQPKVWLITGVAGFIGSNLLETLLKLDQKVVGLDNFATGHQRNLDEVRSLVSEKQWSNFKFIQGDIRNLDDCNNACAGVDYVLHQAALGSVPRSINDPITSNATNIDGFLNMLIAARDAKVQSFTYAASSSTYGDHPGLPKVEDTIGKPLSPYAVTKYVNELYADVFSRCYGFSTIGLRYFNVFGRRQDPNGAYAAVIPKWTSSMIQGDDVYINGDGETSRDFCYIENTVQANLLAATAGLDARNQVYNIAVGGRTSLNQLFFALRDGLAENGVSYHREPVYRDFREGDVRHSLADISKAAKLLGYAPKYDVSAGVALAMPWYIMFLK
notes: Expressed in E. coli BL21(DE3)pLysS from a pET23 derivative and purified by nickel chelation and anion exchange; In the Western immunoblot it stood as the SDS-denatured single chain; this is not a protein partner; also called WbpP epimerase; UDP-GlcNAc C4 epimerase
pH with significant activity ([3]; epimerisation of UDP-GlcNAc): > 6.5 | Activity after storage [4]: without any significant loss of activity | binding result [5]: binds
